This test has as its system JC syngeneic mouse breast adenocarcinoma-derived subcutaneous tumor. Kind of test: JC Study 6: mouse JC syngeneic tumor model, individual tumor volume. The test is classed as in vivo. Conditions: Compound I-263a 7.5 mg/kg IV or anti-mPD-1 10 mg/kg IP, BIWx3 till Day 14. The procedure: JC Study 6: JC is a mouse breast adenocarcinoma cell line. JC mouse syngeneic tumor model was generated by subcutaneous inoculation with 0.2×10^6 JC cells (cell suspension) in 10 weeks old female BALB/c mice (Vital River Laboratory Animal Technology Co., Ltd., Beijing, China) in the flank. When the mean tumor volume reached approximately 45 mm^3, the animals were randomized into one vehicle control and five treatment groups (n=8/group). Mice were then dosed with 20% HPbCD or Compound I-263a or anti-mouse PD-1 antibody over a 21-day period. Tumor growth and body weight were measured twice per week during the treatment and post-treatment periods, and mice were humanely euthanized once they had reached their humane endpoint.
Study 6: A 0.75 mg/mL stock solution of Compound I-263a was formulated weekly in 20% HPβCD and administered intravenously (IV) based on exact animal body weight on each day of treatment, using a dosing volume of 10 mL/kg body weight. Final doses received were 7.5 mg/kg. Dosing volume for Compound I-263a was 0.2 mL. […]
Tumors were measured twice weekly using vernier calipers. Tumor volumes were calculated using standard equation: V=W^2×L/2, where V=volume, W=width, and L=length for the tumor. […] Tumor size and body weight were measured twice a week for the duration of the study. […]

For `Cc1sc(C(=O)c2cncnc2N[C@@H]2C[C@H](COS(N)(=O)=O)[C@@H](O)C2)cc1[C@@H]1NCCc2ccc(Cl)cc21` [Compound I-263a, [(1R,2S,4R)-4-{[5-({4-[(1R)-7-chloro-1,2,3,4-tetrahydroisoquinolin-1-yl]-5-methyl-2-thienyl}carbonyl)pyrimidin-4-yl]amino}-2-hydroxycyclopentyl]methyl sulfamate], the “tumor growth inhibition / antitumor activity” value (8 tumors/group) is on record as “very little tumor growth inhibition”. In addition, the “tumors with slight growth delay” value (delay from day 16-18, out of 8 implanted) is “one”.

The values are drawn from patent US12419890B2, “Administration of sumo-activating enzyme inhibitor and checkpoint inhibitors” (Takeda Pharmaceutical Company Limited, priority 2019, dated 2025).
